Measurements taken from patent publication US20240324597A1, “Method For Spot-Treatment Application Against Weeds” (Monsanto Technology LLC, priority 2021, published 2024).

Assays:
Type in all cases: in vivo
[1] = test system: Soybeans (GLXMA); test: Crop injury after spray with crop rows covered by rain gutters, soybeans (Example 2, Table 6); conditions: MSO + AMS
Text: In a second set of trials Soybeans (GLXMA) were planted in a standard planting system with 30 in row spacing and grown until they reached a BBCH growth stage of 11-12 or roughly 12 cm average height.
Application was made using a CO2 pressurized backpack sprayer and a handheld 6 nozzle boom, operating at 2.5 bar. The application was made at damp soil conditions and a windspeed of 0-15 km/h. The crop rows were covered during the actual spray application using upside down metal rain gutters (10 cm×10 cm depth×width) covering the crop and the soil below of about 5 cm on either side from the crop row center. All treatments included 1.5 L of a methylated seed oil (MSO) and 2 Kg/ha Ammonium sulfate (AMS) salt source and were mixed into 1 L fraction of an equivalent to 200 L/ha spray solution.
(§1) […] The crop injury was rated were visually on a percentage scale in relation to the untreated control (100%=all plants dead; 50%=green plant biomass reduced by 50%, and 0%=no discernible difference=like control plot).

[2] = test system: Pepper plants (Capsicum frutescens L., CPSFR); test: Crop injury after shielded spray around transplanted pepper plants (Example 3, Table 7)
Text: In a third set of trials pepper plants (Capsicum frutescens L., CPSFR) were manually transplanted at a growth stage of BBCH 13 in a field and grown until they reached BBCH growth stage of 14 or roughly 10 cm average crop height.
Application was made using a compressed air sprayer and a handheld 1 nozzle spray lance. The nozzle was shielded by a spray shield to prevent unintended spray drift during application. The application was made at damp soil conditions and calm wind around each single pepper plant. The crop plants were shielded from spray drift during application and spray slurry reached only the soil and weed cover surrounding the pepper plants.
as §1

[3] = test system: Soybeans (GLXMA); test: Crop injury after hooded band spot-spray between crop rows, soybeans (Example 1, Table 5); conditions: 1440 g a.i./ha, MSO + AMS
Text: Sunflower (HELAN), Corn (ZEAMD) and Soybeans (GLXMA) were planted in a standard planting system with 30 in row spacing and grown until they reached a BBCH growth stage of 16-18; 12-13 and 14, respectively.
Application was made using a CO2 pressurized backpack sprayer and a handheld two nozzle boom, operating at 2.75 bar. Each of the nozzles (TeeJet Extended Air Induction nozzle 0015) was equipped with a plastic hood covering a 38 cm band left and right of each crop row and preventing unintended spray drift outside the band. The spray solution covered a band of roughly 38 cm on either side of the crop row with an average distance 8 cm to the row center and 2-10 cm distance between soil surface and lower end of the spray shield. The application was made at damp soil conditions and a windspeed of 0-10 km/h. All treatments included 1.5 L of an methylated seed oil (MSO) and 2 Kg/ha Ammonium sulfate (AMS) salt source and were mixed into 1 L fraction of an equivalent to 187 L/ha spray solution.
The crop injury assessments were conducted as visual assessments at 15, 28 and 45 days after application (DAA) in case of Sunflower and soybeans and at 14 and 27 DAA in case of com. Also in case of Table 5 assessments were done in soybeans at 15, 25 and 44 DAA. The crop injury was rated were visually on a percentage scale in relation to the untreated control (100%=all plants dead; 50% =green plant biomass reduced by 50%, and 0%=no discernible difference=like control plot).

Measured: Crop injury [% untreated]

C=CC1(C(=O)NC2COC(C(=O)OC)C2)CC(c2cc(F)cc(F)c2)=NO1 (mixture of isomers) [A 1.68]
0 % untreated: [1]; 100 g a.i./ha, 7 DAA | [1]; 100 g a.i./ha, 15 DAA | [1]; 100 g a.i./ha, 28 DAA | [1]; 100 g a.i./ha, 45 DAA | [1]; 200 g a.i./ha, 7 DAA | [1]; 200 g a.i./ha, 15 DAA | [1]; 200 g a.i./ha, 28 DAA | [1]; 200 g a.i./ha, 45 DAA | [2]; 100 g a.i./ha, 5 DAA | [2]; 100 g a.i./ha, 7 DAA | [2]; 100 g a.i./ha, 14 DAA | [2]; 150 g a.i./ha, 5 DAA | [2]; 150 g a.i./ha, 7 DAA | [2]; 150 g a.i./ha, 14 DAA

O=C(O)CNCP(=O)(O)O [Glyphosate, glyphosate, reference compound]
0 % untreated: [3]; 15 DAA | [3]; 25 DAA | [3]; 44 DAA | [1]; 1440 g a.i./ha, 7 DAA | [1]; 1440 g a.i./ha, 15 DAA | [1]; 1440 g a.i./ha, 28 DAA | [1]; 1440 g a.i./ha, 45 DAA
